The values that follow come from patent US8105993B2, “Process compositions and production of acyl alkylisethionate compositions” (Huntsman Petrochemical LLC, priority 2006, dated 2012).

The test system of one data set is Zein. The data set is described as follows: Zein irritation score (in vitro mildness). Particulars: the lower the score, the more mild. How it is done: To evaluate the mildness of the products of the present invention, Zein scores were determined for a variety of sulfate and isethionate surfactants and their scores are reported in Table III:
The lower the Zein score, the more mild the composition.

The conditions of data set [1]: levels of 10% by weight; cited from earlier work.
Data set [2] is described as follows: Foaming test, one-liter capped rotating measuring cylinder foam machine. The format is physicochemical. To be noted: FIGS. 1A and 1B; 0.5% active of surfactant; compared with SLES or SLS based cleansers. How it is done:
Foaming tests were performed using a one-liter capped rotating measuring cylinder foam machine at a rate of 30 revolutions per minute and ambient temperature ranging from about 20° C. to about 22° C. and at a concentration of 0.5% of total surfactants. Foam heights in the graduated cylinder were measured at the start and at 10 minutes of rotation. The results are shown below in Table I:
A second foaming test was performed using the same parameters as above, but a stripped coco fatty acid chain SCMI was tested in place of a whole coco fatty acid chain SCMI.

For the compound `CCCCCCCCCCCC(=O)OC(C)CS(=O)(=O)[O-].[Na+]` (centres unmarked) [Sodium Lauroyl Methyl Isethionate], the “Zein Score” value in the data set on Zein was 134 mg N/100 ml solution.

In the case of `CCCCCCCCCCCCOS(=O)(=O)[O-].[Na+]` [Sodium Lauryl Sulfate, sodium lauryl sulfate, reference compound], the “Zein Score” value in the data set on Zein was 527 mg N/100 ml solution. In the case of Sodium Cocoyl Ethyl Isethionate, the “Zein Score” value in the data set with Zein was found to be 104 mg N/100 ml solution.

Regarding Sodium Lauroyl Ethyl Isethionate, the “Zein Score” value with Zein is on record as 187 mg N/100 ml solution. Take “sodium cocoyl isethionate [reference compound]”: the “Zein Score” value in the data set with Zein turned out to be 254 mg N/100 ml solution. Also, in data set [1], the “skin and eye irritancy” value is “non-skin irritant and eye irritant”. On to sodium cocoyl methyl isethionate, for which the foam appearance entry in data set [2] is “tighter and creamier”. In addition, the “Zein Score” value in the data set on Zein came out at 147 mg N/100 ml solution.
